Data: ChEMBL document CHEMBL3885861, “Open TG-GATES”

Species on record: Rattus norvegicus
Experiment: Open TG-GATES - Regimen: Single
Format: toxicity, organism-based, Sprague-Dawley
Set-up: regimen Single, gender Male, age 6 weeks
Details: in vivo, po, 30 mg/kg, route gavage, dose level Low; for APTT / Bas / Eos / Fbg / Hb / Ht / Lym / MCHC / MCV / Mono / Neu / PT / Plat / RBC / Ret / WBC: tissue Blood; for KIDNEY_L / KIDNEY_R / KIDNEY_TOTAL: tissue Kidney; for LIVER: tissue Liver; for ALP / ALT / AST / BUN / CRE / Ca / Cl / DBIL / GLC / IP / K / LDH / Na / PL / RALB / TBIL / TC / TG / TP / gamma-GTP: tissue Plasma

## CS(=O)(=O)Nc1ccc([N+](=O)[O-])cc1Oc1ccccc1 [NIMESULIDE]
3 h
  TERMINAL_BW: 200.4 g
  APTT: 16.6 s
  Bas: 0%
  Eos: 1%
  Fbg: 231 mg/dL
  Hb: 13.1 g/dL
  Ht: 39.1%
  Lym: 80.8%
  MCHC: 33.6%
  MCV: 63.4 fL
  Mono: 5%
  Neu: 13.4%
  PT: 12.5 s
  Plat: 127.7 x10_4/uL
  RBC: 616.4 x10_4/ul
  Ret: 11.7%
  WBC: 116.6 x10_2/uL
  KIDNEY_L: 0.9 g
  KIDNEY_R: 0.9 g
  KIDNEY_TOTAL: 1.8 g
  LIVER: 9 g
  ALP: 803 IU/L
  ALT: 39.6 IU/L
  AST: 69.8 IU/L
  BUN: 16.6 mg/dL
  CRE: 0.6 mg/dL
  Ca: 10.9 mg/dL
  Cl: 107.6 meq/L
  DBIL: 0.064 mg/dL
  GLC: 208.4 mg/dL
  IP: 9.2 mg/dL
  K: 5 meq/L
  LDH: 106 IU/L
  Na: 141.2 meq/L
  PL: 134.4 mg/dL
  RALB: 3.7 g/dL
  TBIL: 0.3 mg/dL
  TC: 78.2 mg/dL
  TG: 47.8 mg/dL
  TP: 5.2 g/dL
  gamma-GTP: 1.6 IU/L
6 h
  TERMINAL_BW: 196.1 g
  APTT: 17.4 s
  Bas: 0%
  Eos: 1%
  Fbg: 201.6 mg/dL
  Hb: 13.7 g/dL
  Ht: 40.5%
  Lym: 74.6%
  MCHC: 33.8%
  MCV: 65.6 fL
  Mono: 9.2%
  Neu: 15%
  PT: 12.6 s
  Plat: 111.4 x10_4/uL
  RBC: 618 x10_4/ul
  Ret: 10.6%
  WBC: 84.5 x10_2/uL
  KIDNEY_L: 0.9 g
  KIDNEY_R: 0.9 g
  KIDNEY_TOTAL: 1.8 g
  LIVER: 8.3 g
  ALP: 790 IU/L
  ALT: 33 IU/L
  AST: 62.2 IU/L
  BUN: 13.8 mg/dL
  CRE: 0.6 mg/dL
  Ca: 10.7 mg/dL
  Cl: 106.6 meq/L
  DBIL: 0.054 mg/dL
  GLC: 200 mg/dL
  IP: 10.2 mg/dL
  K: 5 meq/L
  LDH: 86.8 IU/L
  Na: 139.8 meq/L
  PL: 119.6 mg/dL
  RALB: 3.7 g/dL
  TBIL: 0.4 mg/dL
  TC: 68 mg/dL
  TG: 56.6 mg/dL
  TP: 5.2 g/dL
  gamma-GTP: 1.2 IU/L
9 h
  TERMINAL_BW: 200.7 g
  APTT: 16.7 s
  Bas: 0%
  Eos: 0.6%
  Fbg: 207.8 mg/dL
  Hb: 13.2 g/dL
  Ht: 39.5%
  Lym: 81.4%
  MCHC: 33.5%
  MCV: 66.3 fL
  Mono: 8.2%
  Neu: 10%
  PT: 12.3 s
  Plat: 111.8 x10_4/uL
  RBC: 596.2 x10_4/ul
  Ret: 11%
  WBC: 78.5 x10_2/uL
  KIDNEY_L: 1 g
  KIDNEY_R: 1 g
  KIDNEY_TOTAL: 1.9 g
  LIVER: 8.4 g
  ALP: 888.4 IU/L
  ALT: 30.8 IU/L
  AST: 61 IU/L
  BUN: 15 mg/dL
  CRE: 0.5 mg/dL
  Ca: 10.6 mg/dL
  Cl: 108 meq/L
  DBIL: 0.014 mg/dL
  GLC: 201 mg/dL
  IP: 10.2 mg/dL
  K: 4.9 meq/L
  LDH: 99 IU/L
  Na: 139.4 meq/L
  PL: 135.8 mg/dL
  RALB: 3.9 g/dL
  TBIL: 0.4 mg/dL
  TC: 78.2 mg/dL
  TG: 41 mg/dL
  TP: 5.3 g/dL
  gamma-GTP: 1.4 IU/L
24 h
  TERMINAL_BW: 212.5 g
  APTT: 17.2 s
  Bas: 0%
  Eos: 1.2%
  Fbg: 199.2 mg/dL
  Hb: 13.6 g/dL
  Ht: 40.7%
  Lym: 71.2%
  MCHC: 33.4%
  MCV: 63.8 fL
  Mono: 8.2%
  Neu: 19.4%
  PT: 11.7 s
  Plat: 109.8 x10_4/uL
  RBC: 638.4 x10_4/ul
  Ret: 10.3%
  WBC: 124.8 x10_2/uL
  KIDNEY_L: 0.9 g
  KIDNEY_R: 1 g
  KIDNEY_TOTAL: 1.9 g
  LIVER: 10.6 g
  ALP: 968.4 IU/L
  ALT: 44 IU/L
  AST: 68.8 IU/L
  BUN: 19.2 mg/dL
  CRE: 0.6 mg/dL
  Ca: 10.8 mg/dL
  Cl: 106 meq/L
  DBIL: 0.012 mg/dL
  GLC: 190.6 mg/dL
  IP: 7.6 mg/dL
  K: 4.9 meq/L
  LDH: 99.2 IU/L
  Na: 140.2 meq/L
  PL: 151.6 mg/dL
  RALB: 4 g/dL
  TBIL: 0.3 mg/dL
  TC: 81 mg/dL
  TG: 90 mg/dL
  TP: 5.5 g/dL
  gamma-GTP: 2 IU/L
